Holding throughout (assay): growth of human tumour cells (NCI), 48 h
Assay [1] relates to CAKI-1 renal.
Assay [2] relates to DU-145 prostate.
Assay [3] relates to LOX IMVI melanoma.
The subject of assay [4] is OVCAR-3 ovarian.
The test system of assay [5] is OVCAR-4 ovarian.
Assay [6] has as its system PC-3 prostate.
Assay [7] relates to SF-268 CNS.
For assay [8], the system named is SF-295 CNS.
Assay [9] has as its system SK-MEL-2 melanoma.
Assay [10] deals with SNB-19 CNS.

Molecules are shown by their SMILES.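 Values below derive from 48-hour exposures of cells grown in 96-well plates, with endpoints linearly interpolated between the two concentrations bracketing the appropriate inhibition level. Abbreviation: GI50, concentration required for 50% inhibition of growth. At the TGI there is no net growth.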 A value given as a limit tells only on which side of the number the result lay.

In the case of `CO[C@H]1/C=C/C[C@H](C)[C@@H](C)S(=O)(=O)NC(=O)c2ccc3c(c2)N(C[C@@H]2CC[C@H]21)C[C@@]1(CCCc2cc(Cl)ccc21)CO3`, the GI50 was 3.45 µM in assay [1]; 4.56 µM in assay [2]; 1.84 µM in assay [3]; 1.9 µM in assay [4]; 2.46 µM in [5]; 1.98 µM in assay [6]. In addition, the GI50 was 3.6 µM in [7], 1.97 µM in assay [8], 0.321 µM in assay [9] and 3.45 µM in assay [10]. The TGI was 12.9 µM in [1]; 15.3 µM in [2]; 3.41 µM in assay [3]; 3.75 µM in assay [4]; 12.1 µM in assay [5]; 6.23 µM in assay [6]. The TGI in assay [7] was determined as 14 µM; in assay [8], 6.05 µM; in assay [9], 1.43 µM; in [10] it was 14.1 µM.

As to `COc1cccc2cc(N(C)c3nc(C)nc4ccsc34)ccc12`, the GI50 in assay [1] was below 0.01 µM; in assay [2], below 0.01 µM; in assay [3], below 0.01 µM; in assay [4], below 0.01 µM; in [5], below 0.0266 µM; in assay [6] it was below 0.01 µM. The GI50 is below 0.01 µM in assay [7], below 0.01 µM in [8], 0.123 µM in assay [9] and below 0.01 µM in assay [10]. The TGI in [1] stood at 15.3 µM; in assay [2], 10.6 µM; in assay [3] it was 13.6 µM; in [5] it was 19.8 µM; in [6], 15.1 µM; in assay [7] it was 13.9 µM. Further, the TGI in assay [8] amounted to 12.4 µM; in assay [9], 17.3 µM; in assay [10], 22.9 µM.

For `O=C(Nc1ccc([N+](=O)[O-])cc1)c1cc2ccccc2cc1O`, the GI50 in assay [1] is 0.26 µM; in [2], 0.484 µM; in [3], 0.405 µM; in assay [4], 0.397 µM; in assay [5], 0.322 µM; in assay [6], 0.937 µM. Moreover, the GI50 is 0.515 µM in assay [7], 1.15 µM in [8], 0.285 µM in assay [9] and 0.405 µM in assay [10]. Also, the TGI in assay [1] is 0.955 µM; in assay [2], above 100 µM; in assay [4], 15.8 µM; in assay [5], above 100 µM; in assay [6], 7.88 µM; in assay [7], 15.2 µM. The TGI in [8] is 3.17 µM; in assay [9] it was 0.722 µM; in assay [10] it was 27.8 µM.

Take `Cc1sc2c(c1C)C(c1ccc(Cl)cc1)=N[C@@H](CC(=O)Nc1ccc(O)cc1)c1nnc(C)n1-2`: the GI50 in assay [1] is 0.0946 µM; in assay [2], 14.7 µM; in assay [3], 0.109 µM; in assay [4], 0.888 µM; in [5], 0.585 µM; in assay [6], 1.11 µM. Further, the GI50 in assay [7] is 11.8 µM; in assay [8], 2 µM; in assay [9], 3.31 µM; in [10], 0.721 µM. Further, the TGI is 16.2 µM in assay [1]; 42.8 µM in assay [2]; 6.29 µM in assay [3]; 18.7 µM in assay [4]; above 67 µM in assay [5]; 23.1 µM in [6]. The TGI in [7] was determined as 50.8 µM; in assay [8], 22.4 µM; in assay [9], 22 µM; in assay [10], 31.3 µM.

As for `OCCCCC#Cc1ccccc1C#Cc1cccs1`, the GI50 in [1] is 14.6 µM; in assay [2], 13 µM; in assay [3] it was 13.9 µM; in assay [4] it was 15 µM; in assay [5] it was 20.2 µM; in assay [6], 16.2 µM. The GI50 was 15.8 µM in assay [7], 19 µM in assay [8], 19 µM in assay [9] and 16.1 µM in assay [10]. For the same molecule, the TGI in assay [1] is 28.3 µM; in [2], 25.7 µM; in assay [3] it was 26.8 µM; in assay [4], 28.9 µM; in assay [5] it was 50.1 µM; in assay [6] it was 30.8 µM. Besides, the TGI in [7] stood at 32 µM; in assay [8], 34.7 µM; in assay [9], 37.9 µM; in [10], 31.1 µM.

Turning to `COc1ccc(NCc2c(O)ccc3ccccc23)cc1`, the TGI in assay [1] is 67.1 µM; in assay [2] it was above 100 µM; in assay [3], 29.4 µM; in assay [4] it was above 100 µM; in [5], above 100 µM; in assay [6], 49.9 µM. Besides, the TGI in [7] is 40.7 µM; in [8], above 100 µM; in assay [9], above 100 µM; in assay [10], above 100 µM.

Regarding `COc1cc(/C=N/O)nc(-c2ccccn2)c1`, the TGI in assay [1] was 8.97 µM; in assay [2], above 75.3 µM; in assay [3], 10.8 µM; in assay [4], above 100 µM; in [5], above 100 µM; in [6], above 100 µM. In addition, the TGI was 68.2 µM in [7], above 35.5 µM in assay [8], above 100 µM in assay [9] and above 100 µM in assay [10]. Besides, the GI50 in assay [2] was 0.4 µM; in [3] it was 0.271 µM; in assay [4], 0.324 µM; in assay [5], 0.255 µM; in assay [6] it was 0.437 µM; in [7] it was 0.357 µM. Moreover, the figures for the GI50 in assay [9] and in [10] were 1.86 µM and 0.558 µM, respectively.

For `COc1ccc2nc(C3=CN(C4OC(CO)C(O)C(O)C4O)C4C=CC=CC34)sc2c1` (stereo unspecified), the GI50 in assay [1] was 40.7 µM; in [2], 38.8 µM; in [3] it was 19.4 µM; in assay [4], 87.5 µM; in assay [5], above 100 µM; in [6], 38.9 µM. Further, the GI50 was above 100 µM in assay [7], 26.6 µM in [8], 38.8 µM in [9] and 46.8 µM in assay [10]. For the same molecule, the TGI was above 100 µM in assay [1]; above 100 µM in assay [2]; 56.6 µM in assay [3]; above 100 µM in assay [4]; above 100 µM in [5]; above 100 µM in assay [6]. In addition, the TGI in assay [7] was above 100 µM; in assay [8] it was 82.3 µM; in assay [9], above 100 µM; in [10], above 100 µM.

Source of the values: PubChem BioAssay (NCI).
